According to patent publication US20160120932A1, “TRANSPLANT SITE-FORMING AGENT, TRANSPLANT SITE-FORMING DEVICE, ANGIOGENIC AGENT AND ANGIOGENIC DEVICE” (Kyoto University, priority 2014, published 2016):

Columns and labels:
[1] = test system: diabetic ACI rats; assay: Blood glucose level of recipients after transplanting pancreatic islets to the site from which the agarose rod was removed; type: in vivo; conditions: SEK-1005 rods removed after 10 days, 3000 pancreatic islets from F344 rat transplanted; casual blood glucose level
Description: (§1) Diabetic rats were prepared by intraperionerally administering streptozocin (STZ) to ACI rats (8-week old, male). The blood glucose level of the rats were measured, and it was determined that diabetes was induced when the blood glucose level exceeded 400 mg/dL for 2 days in succession. A substrate formed of 4.5% agarose gel having a rod shape of 25 mm in length and 4 mm in diameter was impregnated with SEK-1005 (100 μg) dissolved in alcohol. After sufficiently evaporating alcohol, the agarose rod was impregnated with physiological saline. The agarose rods were implanted under the skin of the diabetic rats at two portions, on the right side and on the left side of the backbone, respectively. As a control, agarose rods that were impregnated with physiological saline without SEK-1005 were implanted under the skin of a diabetic rat, on the right side and on the left side of the backbone, respectively.
Pancreatic islets were separated from a F344 rat as a donor, and were transplanted to the diabetic ACI rats as prepared above as recipients. Specifically, the agarose rods containing SEK-1005 as prepared in the same process as described above were implanted on the right side and on the left side of the backbone of the diabetic rats, respectively, and were removed 10 days after the implantation. […]

[2] = test system: diabetic ACI rats; assay: Glucose tolerance test of recipients after transplantation of pancreatic islets; type: in vivo, rat; conditions: glucose intraperitoneally (60 mg/kg)
Excerpt: (§2) Pancreatic islets were separated from a F344 rat as a donor, and were transplanted to the diabetic ACI rats as prepared above as recipients. Specifically, the agarose rods containing SEK-1005 as prepared in the same process as described above were implanted on the right side and on the left side of the backbone of the diabetic rats, respectively, and were removed 10 days after the implantation. Thereafter, 1500 pancreatic islets separated from the […] rat were transplanted to each of the spaces formed by removing the agarose rods, respectively (3000 pancreatic islets in total).
In the test, changes in the blood glucose level after intraperitoneally administering glucose (60 mg/kg) were examined.
Further, glucose was administered in the same manner as the above to the recipients at 100 to 105 days after the transplantation of pancreatic islets, and the changes in the blood glucose level were examined. As a result, a trend that a degree of decrease in blood glucose level was less than the recipients at 50 to 55 days after the transplantation of the pancreatic islets was observed. […] On the other hand, the diabetic rats maintained a blood glucose level of as high as approximately 500 mg/dL. The error bars in FIG. 7 each indicate standard deviations (normal; n=4, diabetic; n=3, 40 days after transplantation; n=4, 90 days after transplantation; n=4).

[3] = test system: diabetic ACI rats; assay: HE-stained and immunofluorescent-stained tissue slice of the transplant site; type: in vivo, rat; conditions: 106 days after transplantation
Excerpt: as §2
The upper images in FIG. 8 are photographs of a HE-stained tissue slice prepared from a site at which the pancreatic islets were transplanted, obtained from a recipient with a normalized blood glucose level at 106 days after the transplantation of the pancreatic islets.
The lower image in FIG. 8 is an immunofluorescent-stained image of a tissue slice obtained at the substantially same site to the HE-stained tissue slice.

[4] = test system: white blood cells or bone-marrow cells; conditions: JP-A H10-259134; cited from earlier work
[5] = test system: subcutaneous tissue of diabetic ACI rats; assay: Amount of hemoglobin in subcutaneous tissue at contact portion with the agarose rod; type: in vivo, rat; conditions: agarose rod containing 10 μg or 100 μg of SEK-1005, implanted for 10 days
Description: as §1
The data shown in FIG. 3 are the measurement results of the amount of hemoglobin of a diabetic ACI rat to which an agarose rod was not implanted, a diabetic rat implanted with an agarose rod not containing SEK-1005, a diabetic rat implanted with an agarose rod containing 10 μg of SEK-1005, and a diabetic rat implanted with an agarose rod containing 100 μg of SEK-1005. The measurement was conducted after removing the agarose rod that had been implanted for 10 days. […]

[6] = test system: subcutaneous tissue of diabetic ACI rats; assay: Evaluation of effect of inducing angiogenesis: observation of tissue around agarose rod implanted under the skin (gross and HE-stained slice); type: in vivo, rat
Description: as §1
Ten days after the implantation, the agarose rods were removed and the surrounding tissues were observed.

[7] = test system: diabetic ACI rats; assay: Plasma insulin concentration of recipients after transplanting pancreatic islets; type: in vivo, rat; conditions: at 40 days and at 90 days after transplanting the pancreatic islets; casual measurements
Excerpt: as §2
The error bars in FIG. 6 each indicate standard deviations (normal; n=4, diabetic; n=3, 40 days after transplantation; n=4, 90 days after transplantation; n=4). The values of the plasma insulin concentration are casual measurements.

[8] = test system: diabetic rat; conditions: device containing bFGF; cited from earlier work

Compound	blood glucose levels of recipients (FIG. 4) [1]	changes in blood glucose level in glucose tolerance test (FIG. 7) ([2]; 50 to 55 days after transplantation)	changes in blood glucose level in glucose tolerance test (FIG. 7) ([2]; 100 to 105 days after transplantation)	blood vessels in the cell clumps, HE-stained tissue slice of transplant site (FIG. 8) [3]	insulin-positive cells in immunofluorescent-stained tissue slice (FIG. 8) [3]	pancreatic islet cell clumps in HE-stained tissue slice of transplant site (FIG. 8) ([3]; recipient with normalized blood glucose level)	amount of granulation tissue [4]	amount of hemoglobin in the subcutaneous tissue (FIG. 3) [5]	development of blood vessels having a small diameter at the surrounding tissue (FIG. 1) ([6]; agarose rod containing SEK-1005 (100 μg) implanted under the skin for 10 days, compared to rod not containing SEK-1005)	development of blood vessels having a small diameter in HE-stained subcutaneous tissue slice (FIG. 2) ([6]; contact portion with agarose rod containing SEK-1005, compared with rod not containing SEK-1005)	plasma insulin concentration versus diabetic rat to which pancreatic islets were not transplanted (FIG. 6) [7]	plasma insulin concentration versus normal rat (FIG. 6) [7]	blood glucose level after transplanting pancreatic islets at the site after removing the device [8]	generation of blood vessels at the site under the skin where the device was implanted [8]
CC(C)CC1CCC(O)(C(C)(O)C(=O)NC2C(=O)N3NCCCC3C(=O)N(O)C(C)C(=O)N(C)C(Cc3ccccc3)C(=O)N3NCCCC3C(=O)NC(CO)C(=O)OC2C(C)C)OC1C (stereo not drawn) [SEK-1005, Ser,3-hydroxy-N-[2-hydroxy-1-oxo-2-tetrahydro-2-hydroxy-6-methyl-5-(2-methylpropyl)-2H-pyran-2-yl-propyl]-Leu-Pip(hexahydro-3-pyridazinecarbonyl)-N-hydroxy-Ala-N-methyl-Phe-Pip-rho-lactone]	four in six recipients were normalized over 100 days	controlled to a similar level to a normal rat	controlled to a degree similar to that of a normal rat	many blood vessels having a small diameter penetrated the cell clumps	insulin-positive cells were observed	many cell clumps which were considered to be pancreatic islets existed	increasing the amount of a granulation tissue	increased	blood vessels having a small diameter were developed	blood vessels having a small diameter were developed	significantly higher	did not show a significant difference	–	–
bFGF: basic fibroblast growth factors, a substance for inducing angiogenesis	–	–	–	–	–	–	–	–	–	–	–	–	normalized during a long period of time	generation of blood vessels having a small diameter was observed
